A short description of series [1]: refractive index (Na D-line) (dimensionless). As to conditions: 298.15 K; 101.33 kPa; Liquid; Standard Abbe refractometry.
The conditions of series [2]: 298.15 K; 101.33 kPa; Liquid; Pycnometric method.

± gives the expanded uncertainty stated by the source.

Regarding `O` [water], the refractive index in series [1] amounted to 1.33299 ± 0.012. Still for that read-out and setting: for `OCCO` [1,2-ethanediol] the value was 1.43159 ± 0.012. As for `CC(O)CO` (centres undefined) [1,2-propanediol], the mass density in series [2] was found to be 1032.7 ± 0.4 kg/m3. In series [1], the refractive index is listed as 1.43262 ± 0.012.

The values above are taken from the NIST ThermoML archive (doi:10.1021/acs.jced.8b01128).
